Results published in US10556943B2, “HLA-DR binding peptides and their uses” (priority 2007, dated 2020).

Key:
purified HLA DRB1*0901 = molecular target: T1, purified HLA DRB1*0901 (Homo sapiens, UniProt P01903+P01911, A100R/A103E/D57H/D86V/F55Y/F60I/F76Y/I96F/K127E/L162R/M171V/P40D/Q125H/Q99R/R33Q/R42F/S133A/S66N/T210M/V115G/W38K/Y107V/Y59G/Y89S); assay: HLA-DR radioligand binding inhibition assay, DRB1*0901
T1 construct: MHC molecules utilized were purified from EBV transformed homozygous cell lines or single MHC allele transfected 721.221, C1R, or fibroblast lines; made in house; host or cells: EBV transformed homozygous cell lines or single MHC allele transfected 721.221, C1R, or fibroblast lines
Protocol: (§1) Fifteen distinct HLA-DR molecules were used in quantitative assays to measure the binding of peptides to solubilized HLA-DR molecules. […] Briefly, columns of inactivated Sepharose CL4B and Protein A Sepharose were used as pre-columns. HLA-DR molecules were captured by passage of lysates over LB3.1 monoclonal antibody (anti-HLA-DRA) columns. Antibody columns were washed with 10 mM Tris-HCL, pH8.0 with 1% (v/v) NP-40, followed by PBS containing 0.4% (w/v) n-octylglucoside.
(§2) Briefly, 1-10 nM of radiolabeled peptide was co-incubated for 2 days at either room temperature or 37° C. with 1 μM to 1 nM purified HLA-DR molecules in the presence of a cocktail of protease inhibitors. Assays were performed at various pH conditions, ranging from pH 4 to pH 7. […] After incubation, the percentage of HLA-DR-bound radioactivity is determined by capturing HLA-DR/peptide complexes on Optiplates (Packard Instruments, Meriden, Conn.) coated with the LB3.1 antibody and determining bound counts per minute using the TopCount microscintillation counter (Packard Instruments).

purified HLA DRB1*1201 = molecular target: T2, purified HLA DRB1*1201 (Homo sapiens, UniProt P01903+P01911, A100R/A169T/D57E/D86V/F55L/H45Y/K41T/L162R/M171V/P40S/Q125H/Q178H/Q39Y/Q99D/R42G/S66L/T262R/V114A/V67L/W38E/Y59H/Y61H/Y89S); assay: HLA-DR radioligand binding inhibition assay, DRB1*1201; conditions: column 5 of second part of Table I
T2 construct: MHC molecules utilized were purified from EBV transformed homozygous cell lines or single MHC allele transfected 721.221, C1R, or fibroblast lines; made in house; host or cells: EBV transformed homozygous cell lines or single MHC allele transfected 721.221, C1R, or fibroblast lines
Protocol: as §1, with “n-octylglucoside. […] The pH was reduced to 8.0 and the eluates were concentrated by centrifugation in Centriprep 30 concentrators at 2000 rpm (Amicon, Beverly, Mass.).” for “n-octylglucoside.”
as §2, with “Instruments). […] Competitor peptides are tested in 2-4 complete, independent experiments, at concentrations ranging from 30 μg/mL to 300 pg/mL.” for “Instruments).”

purified HLA DRB1*1302 = molecular target: T3, purified HLA DRB1*1302 (Homo sapiens, UniProt P01903+P01911, A100E/A169T/K41T/L162R/M171V/P40S/Q125H/Q178H/Q39Y/Q99D/R42S/S66N/T262R/V115G/W38E/Y61H); assay: HLA-DR radioligand binding inhibition assay, DRB1*1302; conditions: column 6 of second part of Table I
T3 construct: MHC molecules utilized were purified from EBV transformed homozygous cell lines or single MHC allele transfected 721.221, C1R, or fibroblast lines; made in house; host or cells: EBV transformed homozygous cell lines or single MHC allele transfected 721.221, C1R, or fibroblast lines
T3 sequence (P01903 26-254, other chains not shown): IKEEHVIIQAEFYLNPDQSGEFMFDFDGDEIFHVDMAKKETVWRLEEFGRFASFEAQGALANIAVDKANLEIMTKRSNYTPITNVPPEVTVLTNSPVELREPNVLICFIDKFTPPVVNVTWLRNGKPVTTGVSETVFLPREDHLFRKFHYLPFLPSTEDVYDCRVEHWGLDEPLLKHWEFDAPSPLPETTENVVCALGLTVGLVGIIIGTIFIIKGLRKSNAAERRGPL
Protocol: as §1, §2

Measured: IC50

CSCC[C@H](NC(=O)[C@H](CCCNC(=N)N)NC(=O)[C@H](CO)NC(=O)[C@H](Cc1ccccc1)NC(=O)[C@H](CCC(=O)O)NC(=O)[C@H](CO)NC(=O)[C@@H](NC(=O)[C@H](CC(C)C)NC(=O)[C@H](CCC(=O)O)NC(=O)[C@H](CCCNC(=N)N)NC(=O)[C@@H](N)Cc1ccccc1)C(C)C)C(=O)N[C@@H](C)C(=O)N[C@@H](CCCNC(=N)N)C(=O)N[C@@H](CC(=O)O)C(=O)N1CCC[C@H]1C(=O)O [Peptide 9019.0096]
> 20 µM: all assays above
